Reference: patent publication US20250304623A1, “PEPTIDES FOR INTRACELLULAR DELIVERY” (UNIVERSIDADE DE SANTIAGO DE COMPOSTELA, priority 2022, published 2025)
*: point of attachment. NHNH2 = NN*

Experiments:
Format in all cases: cell-based
HepG2 cells = experiment: EGFP mRNA delivery, robotic library screening, HepG2; conditions: HepG2 cells
Method: Cells were seeded in a 96 well plate the day before the experiment at a concentration of 50,000 cell/mL (100 μL/w) in DMEM+10% FBS+1% Gln-Abt. For robotic library screening, the delivery of EGFP-mRNA (from TriLink, fully substituted with 5-methoxyuridine, capped and polyadenylated; TriLink, CleanCap® EGFP mRNA (5moU), ref. L-7201) in six different cell lines was performed. Amphiphilic molecule stock solutions were prepared in DMSO as described above and diluted in DMEM to afford a range of concentrations. The solutions of EGFP-mRNA/amphiphilic molecule complexes were freshly prepared prior to the transfection experiments. 35 μL of the corresponding amphiphile were added to 10 μL of a solution of EGFP-mRNA at 10 ng/μL in DMEM. The mixture was shaken for 30 min at room temperature before the addition to the cells. The cell medium was aspirated, and cells were washed with PBS twice. […] After the incubation, the medium was replaced by 100 μL of fresh DMEM supplemented with 10% FBS. The total EGFP fluorescence was quantified after 72 h in a well plate reader. Amphiphile transfection efficiency was compared and normalized to Lipofectamine® MessengerMax efficiency (value of 1 in Tables 1-5 and 7; double underlined numbers). All experiments were done in triplicate.
(§1) Tables 1-7: RLuc (pDNA) or EGFP (mRNA) expression levels were normalized to Lipofectamine reagents (value=1) and expressed as fold-times signal increase. In the case of siRNA, the siRNA treated cells fluorescence was compared with siMOCK control fluorescence, while Cas9-RNP mediated knockout was measured against the fluorescence of untreated cells. In both siRNA and Cas9-RNP, values are expressed as % fluorescence reduction. Amphiphile concentration was 5 μM in all cases. All experiments were performed in triplicate.
(§2) Tables 14-19 show the mean (triplicates) fluorescence intensity measured after the transfection of EGFP mRNA by different amphiphiles at different concentrations in a variety of cell lines. Background fluorescence values, accounted by untreated control cells, were subtracted for processing.

ARPE19 cells = experiment: EGFP mRNA delivery, robotic library screening, ARPE19
Method: Cells were seeded in a 96 well plate the day before the experiment at a concentration of 50,000 cell/mL (100 μL/w) in DMEM+10% FBS+1% Gln-Abt. For robotic library screening, the delivery of EGFP-mRNA (from TriLink, fully substituted with 5-methoxyuridine, capped and polyadenylated; TriLink, CleanCap® EGFP mRNA (5moU), ref. L-7201) in six different cell lines was performed. Amphiphilic molecule stock solutions were prepared in DMSO as described above and diluted in DMEM to afford a range of concentrations. The solutions of EGFP-mRNA/amphiphilic molecule complexes were freshly prepared prior to the transfection experiments. 35 μL of the corresponding amphiphile were added to 10 μL of a solution of EGFP-mRNA at 10 ng/μL in DMEM. The mixture was shaken for 30 min at room temperature before the addition to the cells. The cell medium was aspirated, and cells were washed with PBS twice. Cells were covered with 39 μL of DMEM and 11 μL of the complex's solution were added to the cells and incubated for 4 h (final concentration of peptide=2.5, 5 and 10 μM; final concentration of EGFP-mRNA=25 ng/well). After the incubation, the medium was replaced by 100 μL of fresh DMEM supplemented with 10% FBS. The total EGFP fluorescence was quantified after 72 h in a well plate reader. Amphiphile transfection efficiency was compared and normalized to Lipofectamine® MessengerMax efficiency (value of 1 in Tables 1-5 and 7; double underlined numbers). All experiments were done in triplicate.
as §1, §2

[1] = system: HCT116 cells expressing EGFP; experiment: EGFP-targeting siRNA delivery (GFP silencing vs siMOCK), HCT116
Method: To generate an EGFP expressing HeLa cell line, HeLa cells were transfected with EGFP pDNA (pEGFP-C1, Clontech) and stable transfectants were selected with 400 μg/mL of G-418 (Millipore). Green clones were selected by epifluorescence microscopy and tested for EGFP expression stability through several passages. […] All other EGFP-expressing cell lines were obtained in a similar way from parent non-EGFP-expressing cell lines.
Cells expressing EGFP were seeded in a 96 well plate the day before the experiment at a concentration of 50,000 cell/mL (100 μL/w) in DMEM+10% FBS+1% Gln-Abt. For robotic library screening, the delivery of an EGFP-targeting siRNA (EGFP: enhanced green fluorescent protein, Ambion® Silencer® GFP Positive Control siRNA (siGFP) (AM4626)) in six different cell lines expressing EGFP was performed. Amphiphilic molecules stock solutions in DMSO were diluted with DMEM and freshly mixed with siRNA stock solutions in DMEM prior to transfection experiments, to afford several complexes at different amphiphile concentration (2-10 μM) while maintaining a constant final siRNA concentration of 30 nM. The mixture was shaken for 30 min at room temperature (rt) before the addition to the cells. The cell medium was aspirated, and cells were washed twice with PBS. Finally, 50 μL of the solution of siRNA/amphiphile complexes were added to the cells and incubated for 4 h. After transfection, the medium was replaced by 100 μL of fresh DMEM supplemented with 10% FBS. The fluorescence knockdown was quantified after 72 h in a plate reader, by comparison with cells transfected with a non-targeting siRNA control (siMOCK, Silencer™ Negative Control No. 1 siRNA (siMOCK) (AM4611)). EGFP knockdown was compared with Lipofectamine® RNAiMAX silencing efficiency (30-60% depending on cell line, defined with a numeric value in the below tables). All experiments were done in triplicate.
as §1
Tables 20-25 show the mean (triplicates) percentage of GFP-silencing, accounted by fluorescence intensity decrease relative to a non-targeting siRNA (siMOCK) control, measured after the transfection of siRNA by different amphiphiles at different concentrations in a variety of cell lines. Background values, accounted by untreated control cells, were subtracted for processing.

Substance: Ac-RK*LRK*K*L-NH2 (Ac-RK(NHNH2)LRK(NHNH2)K(NHNH2)L-NH2; not fully specified; printed as Ac-RK*LRK*K*L-NH2; also: K*2,K*5,K*6: native or modified lysine (ε-amide to a linker)) [Peptide 7.3]
- mean fluorescence intensity after transfection of EGFP mRNA (HepG2 cells; Dodecanal, 5 μM): 1786
- mean fluorescence intensity after transfection of EGFP mRNA (HepG2 cells; Dodecanal, 10 μM): 1477
- mean fluorescence intensity after transfection of EGFP mRNA (HepG2 cells; Dodecanal, 15 μM): 952
- mean fluorescence intensity after transfection of EGFP mRNA (HepG2 cells; Myristoleyl, 5 μM): 1046
- mean fluorescence intensity after transfection of EGFP mRNA (HepG2 cells; Oleyl, 5 μM): 893
- mean fluorescence intensity after transfection of EGFP mRNA (HepG2 cells; Palmitoleyl, 5 μM): 3286
- mean fluorescence intensity after transfection of EGFP mRNA (HepG2 cells; Palmitoleyl, 10 μM): 3553
- mean fluorescence intensity after transfection of EGFP mRNA (HepG2 cells; Palmitoleyl, 15 μM): 766
- mean fluorescence intensity after transfection of EGFP mRNA (HepG2 cells; Petroselinyl, 5 μM): 4095
- mean fluorescence intensity after transfection of EGFP mRNA (HepG2 cells; Petroselinyl, 10 μM): 188
- mean fluorescence intensity after transfection of EGFP mRNA (HepG2 cells; Petroselinyl, 15 μM): 821
- mean fluorescence intensity (EGFP mRNA) (ARPE19 cells; Dodecanal, 2.5 μM): 9507
- mean fluorescence intensity (EGFP mRNA) (ARPE19 cells; Dodecanal, 5 μM): 16576
- mean fluorescence intensity (EGFP mRNA) (ARPE19 cells; Dodecanal, 10 μM): 6912
- mean fluorescence intensity (EGFP mRNA) (ARPE19 cells; Myristoleyl, 2.5 μM): 44289
- mean fluorescence intensity (EGFP mRNA) (ARPE19 cells; Myristoleyl, 5 μM): 10233
- mean fluorescence intensity (EGFP mRNA) (ARPE19 cells; Myristoleyl, 10 μM): 2166
- mean fluorescence intensity (EGFP mRNA) (ARPE19 cells; Oleyl, 2.5 μM): 20910
- mean fluorescence intensity (EGFP mRNA) (ARPE19 cells; Oleyl, 5 μM): 4303
- mean fluorescence intensity (EGFP mRNA) (ARPE19 cells; Palmitoleyl, 2.5 μM): 34422
- mean fluorescence intensity (EGFP mRNA) (ARPE19 cells; Palmitoleyl, 5 μM): 7527
- mean fluorescence intensity (EGFP mRNA) (ARPE19 cells; Palmitoleyl, 10 μM): 7536
- mean fluorescence intensity (EGFP mRNA) (ARPE19 cells; Petroselinyl, 2.5 μM): 25416
- mean fluorescence intensity (EGFP mRNA) (ARPE19 cells; Petroselinyl, 5 μM): 5810
- mean fluorescence intensity (EGFP mRNA) (ARPE19 cells; Petroselinyl, 10 μM): 5129
- percentage of GFP-silencing relative to siMOCK ([1]; Dodecanal, 5 μM): 8%
- percentage of GFP-silencing relative to siMOCK ([1]; Dodecanal, 10 μM): 14%
- percentage of GFP-silencing relative to siMOCK ([1]; Myristoleyl, 15 μM): 27%
- percentage of GFP-silencing relative to siMOCK ([1]; Palmitoleyl, 10 μM): 23%
- percentage of GFP-silencing relative to siMOCK ([1]; Petroselinyl, 5 μM): 15%
- percentage of GFP-silencing relative to siMOCK ([1]; Petroselinyl, 15 μM): 11%

Substance: Ac-RK*LRRK*L-NH2 (Ac-RK(NHNH2)LRRK(NHNH2)L-NH2; not fully specified; printed as Ac-RK*LRRK*L-NH2; also: K*2,K*6: native or modified lysine (ε-amide to a linker)) [Peptide 7.2]
- mean fluorescence intensity after transfection of EGFP mRNA (HepG2 cells; Dodecanal, 5 μM): 75
- mean fluorescence intensity after transfection of EGFP mRNA (HepG2 cells; Dodecanal, 10 μM): −468
- mean fluorescence intensity after transfection of EGFP mRNA (HepG2 cells; Dodecanal, 15 μM): 268
- mean fluorescence intensity after transfection of EGFP mRNA (HepG2 cells; Myristoleyl, 5 μM): 678
- mean fluorescence intensity after transfection of EGFP mRNA (HepG2 cells; Myristoleyl, 10 μM): 752
- mean fluorescence intensity after transfection of EGFP mRNA (HepG2 cells; Myristoleyl, 15 μM): −60
- mean fluorescence intensity (EGFP mRNA) (ARPE19 cells; Dodecanal, 2.5 μM): 898
- mean fluorescence intensity (EGFP mRNA) (ARPE19 cells; Dodecanal, 5 μM): 436
- mean fluorescence intensity (EGFP mRNA) (ARPE19 cells; Dodecanal, 10 μM): 1046
- mean fluorescence intensity (EGFP mRNA) (ARPE19 cells; Myristoleyl, 2.5 μM): 2289
- mean fluorescence intensity (EGFP mRNA) (ARPE19 cells; Myristoleyl, 5 μM): 1119
- mean fluorescence intensity (EGFP mRNA) (ARPE19 cells; Myristoleyl, 10 μM): 1131
- percentage of GFP-silencing relative to siMOCK ([1]; Dodecanal, 5 μM): −20%
- percentage of GFP-silencing relative to siMOCK ([1]; Dodecanal, 10 μM): −5%
- percentage of GFP-silencing relative to siMOCK ([1]; Myristoleyl, 10 μM): 19%
- percentage of GFP-silencing relative to siMOCK ([1]; Myristoleyl, 15 μM): −22%

Substance: Ac-RK*LRRK*LRK*-NH2 (Ac-RK(NHNH2)LRRK(NHNH2)LRK(NHNH2)-NH2; not fully specified; printed as Ac-RK*LRRK*LRK*-NH2; also: K*2,K*6,K*9: native or modified lysine (ε-amide to a linker)) [Peptide 9.3]
- mean fluorescence intensity after transfection of EGFP mRNA (HepG2 cells; Myristoleyl, 15 μM): 867
- mean fluorescence intensity after transfection of EGFP mRNA (HepG2 cells; Oleyl, 5 μM): 382
- mean fluorescence intensity after transfection of EGFP mRNA (HepG2 cells; Oleyl, 10 μM): 802
- mean fluorescence intensity after transfection of EGFP mRNA (HepG2 cells; Oleyl, 15 μM): 231
- mean fluorescence intensity after transfection of EGFP mRNA (HepG2 cells; Palmitoleyl, 10 μM): 1226
- mean fluorescence intensity after transfection of EGFP mRNA (HepG2 cells; Palmitoleyl, 15 μM): 629
- mean fluorescence intensity (EGFP mRNA) (ARPE19 cells; Myristoleyl, 2.5 μM): 5042
- mean fluorescence intensity (EGFP mRNA) (ARPE19 cells; Myristoleyl, 5 μM): 1233
- mean fluorescence intensity (EGFP mRNA) (ARPE19 cells; Oleyl, 5 μM): 859
- mean fluorescence intensity (EGFP mRNA) (ARPE19 cells; Oleyl, 10 μM): 919
- mean fluorescence intensity (EGFP mRNA) (ARPE19 cells; Palmitoleyl, 5 μM): 948
- mean fluorescence intensity (EGFP mRNA) (ARPE19 cells; Petroselinyl, 5 μM): 858
- percentage of GFP-silencing relative to siMOCK ([1]; Dodecanal, 5 μM): 33%
- percentage of GFP-silencing relative to siMOCK ([1]; Dodecanal, 10 μM): 33%
- percentage of GFP-silencing relative to siMOCK ([1]; Dodecanal, 15 μM): 48%
- percentage of GFP-silencing relative to siMOCK ([1]; Myristoleyl, 10 μM): 40%
- percentage of GFP-silencing relative to siMOCK ([1]; Myristoleyl, 15 μM): 13%
- percentage of GFP-silencing relative to siMOCK ([1]; Oleyl, 5 μM): 35%
- percentage of GFP-silencing relative to siMOCK ([1]; Oleyl, 15 μM): 54%
- percentage of GFP-silencing relative to siMOCK ([1]; Palmitoleyl, 10 μM): 25%
- percentage of GFP-silencing relative to siMOCK ([1]; Palmitoleyl, 15 μM): 45%
- percentage of GFP-silencing relative to siMOCK ([1]; Petroselinyl, 15 μM): 33%
